What follows are compounds tested on Aβ42 (assay: Quantification of Aβ peptide in culture of neurons from rat fetus brain (Aβ ELISA)). Settings: Primary cortical neuron, 72 h, IC50 for decrease in the Aβ42 concentration in the medium, three days after addition of the compound, read-out: Aβ42 production reducing effect.
Assay type: cell-based
Experimental: Quantification of Aβ Peptide in Culture of Neurons from Rat Fetus Brain
(1) Rat Primary Neuronal Culture
Primary neuronal cultures were prepared from the cerebral cortex of embryonic day 18 Wistar rats (Charles River Japan, Yokohama, Japan). Specifically, the embryos were aseptically removed from pregnant rats under ether anesthesia. The brain was isolated from the embryo and immersed in an ice-cold L-15 medium (such as Invitrogen Corp. Cat #11415-064, Carlsbad, Calif., USA, or SIGMA L1518). The cerebral cortex was collected from the isolated brain under a stereoscopic microscope. The cerebral cortex fragments collected were enzymatically treated in an enzyme solution containing 0.25% trypsin (Invitrogen Corp. Cat #15050-065, Carlsbad, Calif., USA) and 0.01% DNase (Sigma D5025, St. Louis, Mo., USA) at 37° C. for 30 minutes to disperse the cells. Here, the enzymatic reaction was stopped by adding inactivated horse serum to the solution. The enzymatically treated solution was centrifuged at 1,500 rpm for five minutes to remove the supernatant. 5 to 10 ml of a medium was added to the resulting cell mass. Neurobasal medium (Invitrogen Corp. Cat #21103-049, Carlsbad, Calif., USA) supplemented with 2% B27 supplement (Invitrogen Corp. Cat #17504-044, Carlsbad, Calif., USA), 25 μM 2-mercaptoethanol (2-ME, WAKO Cat #139-06861, Osaka, Japan), 0.5 mM L-glutamine (Invitrogen Corp. Cat #25030-081, Carlsbad, Calif., USA), and Antibiotics-Antimycotics (Invitrogen Corp. Cat #15240-062, Carlsbad, Calif., USA) was used as the medium (Neurobasal/B27/2-ME). However, the above Neurobasal medium not supplemented with 2-ME (Neurobasal/B27) was used for the assay. The cells were redispersed by mild pipetting of the cell mass to which the medium was added. The cell dispersion was filtered through a 40-μm nylon mesh (Cell Strainer, Cat #35-2340, Becton Dickinson Labware, Franklin Lakes, N.J., USA) to remove the remaining cell mass, and thus a neuronal cell suspension was obtained. The neuronal cell suspension was diluted with the medium and then plated in a volume of 100 μl/well at an initial cell density of 5×10^5 cells/cm^2 in a 96-well polystyrene culture plate pre-coated with poly-L or D-lysine (Falcon Cat #35-3075, Becton Dickinson Labware, Franklin Lakes, N.J., USA coated with poly-L-lysine using the method shown below, or BIOCOAT™ cell environments Poly-D-lysine cell ware 96-well plate, Cat #35-6461, Becton Dickinson Labware, Franklin Lakes, N.J., USA). Poly-L-lysine coating was carried out as follows. 100 μg/ml of a poly-L-lysine (SIGMA P2636, St. Louis, Mo., USA) solution was aseptically prepared with a 0.15 M borate buffer (pH 8.5). […] of the solution was added to the 96-well polystyrene culture plate and incubated at room temperature for one or more hours or at 4° C. overnight or longer. Thereafter, the coated 96-well polystyrene culture plate was washed with sterile water four or more times, and then dried or rinsed with, for example, sterile PBS or medium, and used for cell plating. The plated cells were cultured in the incubator at 37° C. in 5% CO2-95% air for one day. Then, the total amount of the medium was replaced with a fresh Neurobasal/B27/2-ME medium, and then the cells were cultured for further three days.
The drug was added to the culture plate on Day 4 of culture as follows. The total amount of the medium was removed from the wells, and 180 μl/well of Neurobasal medium not containing 2-ME and containing 2% B-27 (Neurobasal/B27) was added thereto. […]

Row | IC50 [nM] | Structure (SMILES)
1 | 47 | NC1=NC2(CCOc3ccc(NC(=O)c4ncc(Cl)cc4Cl)cc32)CCS1 (centres unmarked) [Compound 18, N-(2′-amino-2,3,5′,6′-tetrahydrospiro[chromene-4,4′-[1,3]thiazin]-6-yl)-3,5-dichloropyridine-2-carboxamide]
2 | 27 | NC1=NC2(CCOc3ccc(NC(=O)c4ccc(Br)cn4)cc32)CCS1 (centres unmarked) [Compound 16, N-(2′-amino-2,3,5′,6′-tetrahydrospiro[chromene-4,4′-[1,3]thiazin]-6-yl)-5-bromopyridine-2-carboxamide]

More lines, now with the values behind:

Row | Structure (SMILES) | IC50 [nM]
3 | NC1=NC2(CCOc3ccc(NC(=O)c4ncc(Br)cn4)cc32)CCS1 (centres unmarked) [Compound 15, N-(2′-amino-2,3,5′,6′-tetrahydrospiro[chromene-4,4′-[1,3]thiazin]-6-yl)-5-bromopyrimidine-2-carboxamide] | 63
4 | N#Cc1ccc(C(=O)Nc2ccc3c(c2)C2(CCO3)CCSC(N)=N2)nc1 (stereo not drawn) [Compound 11, (−)—N-(2′-amino-2,3,5′,6′-tetrahydrospiro[chromene-4,4′-[1,3]thiazin]-6-yl)-5-cyanopyridine-2-carboxamide] | 53
5 | NC1=NC2(CCOc3ccc(NC(=O)c4ccc(C(F)(F)F)cn4)cc32)CCS1 (centres unmarked) [Compound 12, N-(2′-amino-2,3,5′,6′-tetrahydrospiro[chromene-4,4′-[1,3]thiazin]-6-yl)-5-trifluoromethylpyridine-2-carboxamide] | 71

Source: patent US8501733B2, “Spiroaminodihydrothiazine derivatives” (Eisai R&D Management Co., Ltd., priority 2008, dated 2013)
